Assay results from ChEMBL document CHEMBL1221193, “Deconstructing fragment-based inhibitor discovery” (Nat Chem Biol, 2006).

Target: Beta-lactamase (Escherichia coli K-12, UniProt P00811)
Assay: Inhibition of Escherichia coli AmpC assessed as nitrocefin hydrolysis by UV-Vis spectrophotometry

Beta-lactamase, sequence (P00811 whole entry): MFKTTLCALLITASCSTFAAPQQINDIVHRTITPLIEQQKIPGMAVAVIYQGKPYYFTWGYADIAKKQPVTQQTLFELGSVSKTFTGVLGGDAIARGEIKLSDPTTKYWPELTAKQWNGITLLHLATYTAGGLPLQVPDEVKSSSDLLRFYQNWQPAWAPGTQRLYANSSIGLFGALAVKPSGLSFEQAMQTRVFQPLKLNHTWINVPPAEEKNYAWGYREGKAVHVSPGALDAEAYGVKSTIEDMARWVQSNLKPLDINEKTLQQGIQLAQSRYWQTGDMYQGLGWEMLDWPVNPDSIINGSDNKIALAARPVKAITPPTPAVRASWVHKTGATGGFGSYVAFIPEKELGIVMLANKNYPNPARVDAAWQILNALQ

Ki	Structure (SMILES)
0.001 mM	O=C(O)c1ccc(NS(=O)(=O)c2ccsc2C(=O)O)c(O)c1
40 mM	O=C(O)c1cccs1 [THIOPHENE CARBOXYLIC ACID]
10 mM	CS(=O)(=O)Nc1ccc(C(=O)O)cc1
